# From patent publication US20230017045A1, “PYRIDINE AND PYRIMIDINE CARBOXYLATE HERBICIDES AND METHODS OF USE THEREOF” (Dow AgroSciences LLC, priority 2017, published 2023)
# Test system: not given
# Assay: not given
# Conditions: not given
row,melting point,Structure (SMILES)
1,85 to 86 °C,"COC(=O)c1nc(-c2ccc(C(F)(F)F)cc2Cl)c(Cl)cc1Cl [F103, Methyl 3,5-dichloro-6-(2-chloro-4-(trifluoromethyl)phenyl)picolinate]"
2,65 to 67 °C,"COC(=O)c1nc(-c2ccc(C(F)(F)F)cc2Cl)c(F)c(OC)c1Cl [F42, methyl 3-chloro-6-(2-chloro-4-(trifluoromethyl)phenyl)-5-fluoro-4-methoxypicolinate]"

# Test system: test plant species
# Assay: Post-emergent herbicidal activity test (greenhouse, foliar spray, visual growth reduction)
# Assay type: in vivo
# Conditions: post-emergence, 336 h, ALOMY: blackgrass (Alopecurus myosuroides), 140 g ai/ha, 14 days after application, read-out: Visual Growth Reduction (%) 14 Days After Application, ALOMY
# Procedure, shortened: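 Plants grown in greenhouse (15 h photoperiod, 23-29° C day/22-28° C night) to first or second true leaf stage were sprayed overhead with compound in acetone/water/isopropanol/DMSO/crop oil/X-77 carrier at 187 L/ha. Injury was scored visually after 14 d on a 0-100% scale versus solvent-blank and untreated controls.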
row,Structure (SMILES),pest or weed control at 140 g/ha
1,"COC(=O)c1nc(-c2ccc(C(F)(F)F)cc2Cl)c(Cl)cc1Cl [F103, Methyl 3,5-dichloro-6-(2-chloro-4-(trifluoromethyl)phenyl)picolinate]",0 to 29%
2,"COC(=O)c1nc(-c2ccc(C(F)(F)F)cc2Cl)c(F)c(OC)c1Cl [F42, methyl 3-chloro-6-(2-chloro-4-(trifluoromethyl)phenyl)-5-fluoro-4-methoxypicolinate]",0 to 29%

# Same assay, conditions: post-emergence, 336 h, AMARE: redroot pigweed (Amaranthus retroflexus), 140 g ai/ha, 14 days after application, read-out: Visual Growth Reduction (%) 14 Days After Application, AMARE
row,Structure (SMILES),pest or weed control at 140 g/ha
1,"COC(=O)c1nc(-c2ccc(C(F)(F)F)cc2Cl)c(Cl)cc1Cl [F103, Methyl 3,5-dichloro-6-(2-chloro-4-(trifluoromethyl)phenyl)picolinate]",60 to 74%
2,"COC(=O)c1nc(-c2ccc(C(F)(F)F)cc2Cl)c(F)c(OC)c1Cl [F42, methyl 3-chloro-6-(2-chloro-4-(trifluoromethyl)phenyl)-5-fluoro-4-methoxypicolinate]",30 to 44%

# Same assay, conditions: post-emergence, 336 h, AVEFA: wild oat (Avena fatua), 140 g ai/ha, 14 days after application, read-out: Visual Growth Reduction (%) 14 Days After Application, AVEFA
row,Structure (SMILES),pest or weed control at 140 g/ha
1,"COC(=O)c1nc(-c2ccc(C(F)(F)F)cc2Cl)c(Cl)cc1Cl [F103, Methyl 3,5-dichloro-6-(2-chloro-4-(trifluoromethyl)phenyl)picolinate]",0 to 29%
2,"COC(=O)c1nc(-c2ccc(C(F)(F)F)cc2Cl)c(F)c(OC)c1Cl [F42, methyl 3-chloro-6-(2-chloro-4-(trifluoromethyl)phenyl)-5-fluoro-4-methoxypicolinate]",0 to 29%

# Same assay, conditions: post-emergence, 336 h, CHEAL: lambsquarters (Chenopodium album), 140 g ai/ha, 14 days after application, read-out: Visual Growth Reduction (%) 14 Days After Application, CHEAL
row,Structure (SMILES),pest or weed control at 140 g/ha
1,"COC(=O)c1nc(-c2ccc(C(F)(F)F)cc2Cl)c(Cl)cc1Cl [F103, Methyl 3,5-dichloro-6-(2-chloro-4-(trifluoromethyl)phenyl)picolinate]",75 to 84%
2,"COC(=O)c1nc(-c2ccc(C(F)(F)F)cc2Cl)c(F)c(OC)c1Cl [F42, methyl 3-chloro-6-(2-chloro-4-(trifluoromethyl)phenyl)-5-fluoro-4-methoxypicolinate]",85 to 94%

# Same assay, conditions: post-emergence, 336 h, CIRAR: canada thistle (Cirsium arvense), 140 g ai/ha, 14 days after application, read-out: Visual Growth Reduction (%) 14 Days After Application, CIRAR
row,Structure (SMILES),pest or weed control at 140 g/ha
1,"COC(=O)c1nc(-c2ccc(C(F)(F)F)cc2Cl)c(Cl)cc1Cl [F103, Methyl 3,5-dichloro-6-(2-chloro-4-(trifluoromethyl)phenyl)picolinate]",85 to 94%
2,"COC(=O)c1nc(-c2ccc(C(F)(F)F)cc2Cl)c(F)c(OC)c1Cl [F42, methyl 3-chloro-6-(2-chloro-4-(trifluoromethyl)phenyl)-5-fluoro-4-methoxypicolinate]",60 to 74%

# Same assay, conditions: post-emergence, 336 h, CYPES: yellow nutsedge (Cyperus esculentus), 140 g ai/ha, 14 days after application, read-out: Visual Growth Reduction (%) 14 Days After Application, CYPES
row,Structure (SMILES),pest or weed control at 140 g/ha
1,"COC(=O)c1nc(-c2ccc(C(F)(F)F)cc2Cl)c(Cl)cc1Cl [F103, Methyl 3,5-dichloro-6-(2-chloro-4-(trifluoromethyl)phenyl)picolinate]",0 to 29%
2,"COC(=O)c1nc(-c2ccc(C(F)(F)F)cc2Cl)c(F)c(OC)c1Cl [F42, methyl 3-chloro-6-(2-chloro-4-(trifluoromethyl)phenyl)-5-fluoro-4-methoxypicolinate]",0 to 29%

# Same assay, conditions: post-emergence, 336 h, DIGSA: crabgrass (Digitaria sanguinalis), 140 g ai/ha, 14 days after application, read-out: Visual Growth Reduction (%) 14 Days After Application, DIGSA
row,Structure (SMILES),pest or weed control at 140 g/ha
1,"COC(=O)c1nc(-c2ccc(C(F)(F)F)cc2Cl)c(Cl)cc1Cl [F103, Methyl 3,5-dichloro-6-(2-chloro-4-(trifluoromethyl)phenyl)picolinate]",30 to 44%
2,"COC(=O)c1nc(-c2ccc(C(F)(F)F)cc2Cl)c(F)c(OC)c1Cl [F42, methyl 3-chloro-6-(2-chloro-4-(trifluoromethyl)phenyl)-5-fluoro-4-methoxypicolinate]",0 to 29%

# Same assay, conditions: post-emergence, 336 h, ECHCG: barnyardgrass (Echinochloa crus-galli), 140 g ai/ha, 14 days after application, read-out: Visual Growth Reduction (%) 14 Days After Application, ECHCG
row,Structure (SMILES),pest or weed control at 140 g/ha
1,"COC(=O)c1nc(-c2ccc(C(F)(F)F)cc2Cl)c(Cl)cc1Cl [F103, Methyl 3,5-dichloro-6-(2-chloro-4-(trifluoromethyl)phenyl)picolinate]",0 to 29%
2,"COC(=O)c1nc(-c2ccc(C(F)(F)F)cc2Cl)c(F)c(OC)c1Cl [F42, methyl 3-chloro-6-(2-chloro-4-(trifluoromethyl)phenyl)-5-fluoro-4-methoxypicolinate]",0 to 29%

# Same assay, conditions: post-emergence, 336 h, IPOHE: ivy-leaf morning glory (Ipomoea hederacea), 140 g ai/ha, 14 days after application, read-out: Visual Growth Reduction (%) 14 Days After Application, IPOHE
row,Structure (SMILES),pest or weed control at 140 g/ha
1,"COC(=O)c1nc(-c2ccc(C(F)(F)F)cc2Cl)c(Cl)cc1Cl [F103, Methyl 3,5-dichloro-6-(2-chloro-4-(trifluoromethyl)phenyl)picolinate]",95 to 100%
2,"COC(=O)c1nc(-c2ccc(C(F)(F)F)cc2Cl)c(F)c(OC)c1Cl [F42, methyl 3-chloro-6-(2-chloro-4-(trifluoromethyl)phenyl)-5-fluoro-4-methoxypicolinate]",85 to 94%

# Same assay, conditions: post-emergence, 336 h, KCHSC: kochia (Bassia scoparia), 140 g ai/ha, 14 days after application, read-out: Visual Growth Reduction (%) 14 Days After Application, KCHSC
row,Structure (SMILES),pest or weed control at 140 g/ha
1,"COC(=O)c1nc(-c2ccc(C(F)(F)F)cc2Cl)c(Cl)cc1Cl [F103, Methyl 3,5-dichloro-6-(2-chloro-4-(trifluoromethyl)phenyl)picolinate]",75 to 84%
2,"COC(=O)c1nc(-c2ccc(C(F)(F)F)cc2Cl)c(F)c(OC)c1Cl [F42, methyl 3-chloro-6-(2-chloro-4-(trifluoromethyl)phenyl)-5-fluoro-4-methoxypicolinate]",45 to 59%

# Same assay, conditions: post-emergence, 336 h, ORYSA: rice (Oryza sativa), 140 g ai/ha, 14 days after application, read-out: Visual Growth Reduction (%) 14 Days After Application, ORYSA
row,Structure (SMILES),pest or weed control at 140 g/ha
1,"COC(=O)c1nc(-c2ccc(C(F)(F)F)cc2Cl)c(Cl)cc1Cl [F103, Methyl 3,5-dichloro-6-(2-chloro-4-(trifluoromethyl)phenyl)picolinate]",0 to 29%
2,"COC(=O)c1nc(-c2ccc(C(F)(F)F)cc2Cl)c(F)c(OC)c1Cl [F42, methyl 3-chloro-6-(2-chloro-4-(trifluoromethyl)phenyl)-5-fluoro-4-methoxypicolinate]",0 to 29%

# Same assay, conditions: post-emergence, 336 h, SETFA: giant foxtail (Setaria faberi), 140 g ai/ha, 14 days after application, read-out: Visual Growth Reduction (%) 14 Days After Application, SETFA
row,Structure (SMILES),pest or weed control at 140 g/ha
1,"COC(=O)c1nc(-c2ccc(C(F)(F)F)cc2Cl)c(Cl)cc1Cl [F103, Methyl 3,5-dichloro-6-(2-chloro-4-(trifluoromethyl)phenyl)picolinate]",60 to 74%
2,"COC(=O)c1nc(-c2ccc(C(F)(F)F)cc2Cl)c(F)c(OC)c1Cl [F42, methyl 3-chloro-6-(2-chloro-4-(trifluoromethyl)phenyl)-5-fluoro-4-methoxypicolinate]",0 to 29%

# Same assay, conditions: post-emergence, 336 h, SORVU: grain sorghum (Sorghum vulgare), 140 g ai/ha, 14 days after application, read-out: Visual Growth Reduction (%) 14 Days After Application, SORVU
row,Structure (SMILES),pest or weed control at 140 g/ha
1,"COC(=O)c1nc(-c2ccc(C(F)(F)F)cc2Cl)c(Cl)cc1Cl [F103, Methyl 3,5-dichloro-6-(2-chloro-4-(trifluoromethyl)phenyl)picolinate]",75 to 84%
2,"COC(=O)c1nc(-c2ccc(C(F)(F)F)cc2Cl)c(F)c(OC)c1Cl [F42, methyl 3-chloro-6-(2-chloro-4-(trifluoromethyl)phenyl)-5-fluoro-4-methoxypicolinate]",75 to 84%

# Same assay, conditions: post-emergence, 336 h, STEME: common chickweed (Stellaria media), 140 g ai/ha, 14 days after application, read-out: Visual Growth Reduction (%) 14 Days After Application, STEME
row,Structure (SMILES),pest or weed control at 140 g/ha
1,"COC(=O)c1nc(-c2ccc(C(F)(F)F)cc2Cl)c(Cl)cc1Cl [F103, Methyl 3,5-dichloro-6-(2-chloro-4-(trifluoromethyl)phenyl)picolinate]",0 to 29%
2,"COC(=O)c1nc(-c2ccc(C(F)(F)F)cc2Cl)c(F)c(OC)c1Cl [F42, methyl 3-chloro-6-(2-chloro-4-(trifluoromethyl)phenyl)-5-fluoro-4-methoxypicolinate]",0 to 29%

# Same assay, conditions: post-emergence, 336 h, TRZAS: wheat, spring (Triticum aestivum), 140 g ai/ha, 14 days after application, read-out: Visual Growth Reduction (%) 14 Days After Application, TRZAS
row,Structure (SMILES),pest or weed control at 140 g/ha
1,"COC(=O)c1nc(-c2ccc(C(F)(F)F)cc2Cl)c(Cl)cc1Cl [F103, Methyl 3,5-dichloro-6-(2-chloro-4-(trifluoromethyl)phenyl)picolinate]",0 to 29%
2,"COC(=O)c1nc(-c2ccc(C(F)(F)F)cc2Cl)c(F)c(OC)c1Cl [F42, methyl 3-chloro-6-(2-chloro-4-(trifluoromethyl)phenyl)-5-fluoro-4-methoxypicolinate]",0 to 29%
